Data taken from ChEMBL document CHEMBL3046366, “Inhibitory effect of curcumin analogs on tissue factor procoagulant activity and their preliminary structureactivity relationships” (Med Chem Res, 2013).

molecular target: not listed separately; assay: Inhibition of tissue factor in Homo sapiens (human) THP1-cells using factor 10a chromogenic substrate assessed as inhibition of LPS-iduced procoagulant activity incubated for 1 hr prior to LPS-challenge measured after 5 hr by spectrophotometric analysis; conditions: thp-1

Row | SMILES | IC50
1 | COc1cc(/C=C/C(=O)CC(=O)/C=C/c2ccc(O)c(OC)c2)ccc1O [CURCUMIN] | 200 nM

molecular target: T1, Tissue factor (Homo sapiens, UniProt P13726); assay: Ratio of curcumin IC50 to compound IC50 for tissue factor in LPS-induced Homo sapiens (human) THP1 cells; assay type: cell-based; conditions: THP-1
T1 sequence (P13726 whole entry): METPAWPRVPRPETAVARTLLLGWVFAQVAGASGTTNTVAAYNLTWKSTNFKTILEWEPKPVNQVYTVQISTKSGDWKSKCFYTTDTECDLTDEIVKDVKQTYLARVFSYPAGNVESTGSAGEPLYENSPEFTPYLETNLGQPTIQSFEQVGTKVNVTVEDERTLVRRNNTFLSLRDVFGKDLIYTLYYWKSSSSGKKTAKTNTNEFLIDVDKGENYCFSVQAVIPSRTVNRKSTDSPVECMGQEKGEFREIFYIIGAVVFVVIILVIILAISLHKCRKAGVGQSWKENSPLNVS

Row | SMILES | Ratio IC50
2 | O=C(/C=C/c1ccccc1)c1ccc(O)cc1 [4'-HYDROXYCHALCONE] | 10000
3 | O=C(/C=C/c1ccccc1)/C=C/c1ccccc1 | 10000

molecular target: T1, Tissue factor; assay: Inhibition of tissue factor in Homo sapiens (human) THP1-cells using factor 10a chromogenic substrate assessed as inhibition of LPS-iduced procoagulant activity incubated for 1 hr prior to LPS-challenge measured after 5 hr by spectrophotometric analysis; assay type: cell-based; conditions: thp-1

Row | SMILES | IC50
4 | O=C1/C(=C/c2ccc(O)cc2)CCC/C1=C\c1ccc(O)cc1 | 0.94 nM
5 | O=C1/C(=C/c2ccccc2)CCC/C1=C\c1ccccc1 [2,6-DIBENZYLIDENECYCLOHEXANONE] | 0.26 nM
6 | O=C(/C=C/c1ccccc1)c1ccc(O)cc1 [4'-HYDROXYCHALCONE] | 0.12 nM
7 | COc1ccc(C(=O)/C=C/c2ccc(O)cc2)cc1 | 142 nM
8 | COc1ccc(/C=C2\CCC/C(=C\c3ccc(OC)cc3)C2=O)cc1 | > 200 nM
9 | COc1cc(/C=C2\CCC/C(=C\c3ccc(O)c(OC)c3)C2=O)ccc1O [CYCLOVALONE] | > 200 nM
10 | COc1ccc(/C=C/C(=O)c2ccc(OC)cc2)cc1 [4,4'-DIMETHOXYCHALCONE] | 15.4 nM
11 | COc1cc(/C=C/C(=O)/C=C/c2ccc(O)c(OC)c2)ccc1O | > 200 nM
12 | COc1ccc(/C=C/C(=O)/C=C/c2ccc(OC)cc2)cc1 | 13.4 nM
13 | O=C(/C=C/c1ccc(O)cc1)c1ccc(O)cc1 [4,4'-DIHYDROXYCHALCONE] | 0.96 nM
14 | O=C(/C=C/c1ccc(O)cc1)/C=C/c1ccc(O)cc1 | 2.58 nM
15 | O=C(/C=C/c1ccccc1)/C=C/c1ccccc1 | 0.053 nM
